{
  "source": "patent US11572590B2",
  "about": "“Methods for evaluating tumor cell spheroids using 3D microfluidic cell culture device” (Dana-Farber Cancer Institute, Inc., priority 2017, dated 2023)",
  "assay_in_all_cases": "SelectScreen Kinase Profiling, single point inhibition and IC50 for off-target kinases",
  "format_in_all_cases": "biochemical",
  "key": {"[1]": {"molecular_target": "T1, off-target kinases (Homo sapiens, UniProt Q16832, T654M)", "T1 sequence (Q16832 22-855 T654M)": "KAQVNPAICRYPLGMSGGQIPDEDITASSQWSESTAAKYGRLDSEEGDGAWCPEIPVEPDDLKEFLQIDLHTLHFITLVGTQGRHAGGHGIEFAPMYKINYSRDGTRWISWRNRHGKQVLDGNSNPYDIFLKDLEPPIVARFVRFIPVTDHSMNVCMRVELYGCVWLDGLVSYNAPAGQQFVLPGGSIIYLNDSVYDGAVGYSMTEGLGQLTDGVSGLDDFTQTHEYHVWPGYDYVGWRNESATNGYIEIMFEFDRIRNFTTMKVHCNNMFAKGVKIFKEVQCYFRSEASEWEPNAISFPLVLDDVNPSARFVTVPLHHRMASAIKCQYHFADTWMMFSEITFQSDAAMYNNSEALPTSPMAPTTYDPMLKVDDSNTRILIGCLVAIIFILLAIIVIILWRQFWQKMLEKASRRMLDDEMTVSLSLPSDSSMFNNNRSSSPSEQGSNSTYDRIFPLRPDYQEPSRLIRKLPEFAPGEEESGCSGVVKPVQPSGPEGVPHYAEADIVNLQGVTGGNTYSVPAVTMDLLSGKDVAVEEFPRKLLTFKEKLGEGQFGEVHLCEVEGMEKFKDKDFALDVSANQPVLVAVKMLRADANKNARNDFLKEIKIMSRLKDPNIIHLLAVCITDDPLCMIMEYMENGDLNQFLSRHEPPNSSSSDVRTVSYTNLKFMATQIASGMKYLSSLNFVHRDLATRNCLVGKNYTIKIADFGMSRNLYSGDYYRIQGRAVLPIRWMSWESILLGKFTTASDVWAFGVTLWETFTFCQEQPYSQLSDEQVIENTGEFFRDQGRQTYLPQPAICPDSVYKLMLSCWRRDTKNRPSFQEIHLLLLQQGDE", "settings": "DDR2 T654M, LanthaScreen Binding"}, "[2]": {"molecular_target": "off-target kinases (Homo sapiens, UniProt P08922)", "sequence (P08922 28-2347)": "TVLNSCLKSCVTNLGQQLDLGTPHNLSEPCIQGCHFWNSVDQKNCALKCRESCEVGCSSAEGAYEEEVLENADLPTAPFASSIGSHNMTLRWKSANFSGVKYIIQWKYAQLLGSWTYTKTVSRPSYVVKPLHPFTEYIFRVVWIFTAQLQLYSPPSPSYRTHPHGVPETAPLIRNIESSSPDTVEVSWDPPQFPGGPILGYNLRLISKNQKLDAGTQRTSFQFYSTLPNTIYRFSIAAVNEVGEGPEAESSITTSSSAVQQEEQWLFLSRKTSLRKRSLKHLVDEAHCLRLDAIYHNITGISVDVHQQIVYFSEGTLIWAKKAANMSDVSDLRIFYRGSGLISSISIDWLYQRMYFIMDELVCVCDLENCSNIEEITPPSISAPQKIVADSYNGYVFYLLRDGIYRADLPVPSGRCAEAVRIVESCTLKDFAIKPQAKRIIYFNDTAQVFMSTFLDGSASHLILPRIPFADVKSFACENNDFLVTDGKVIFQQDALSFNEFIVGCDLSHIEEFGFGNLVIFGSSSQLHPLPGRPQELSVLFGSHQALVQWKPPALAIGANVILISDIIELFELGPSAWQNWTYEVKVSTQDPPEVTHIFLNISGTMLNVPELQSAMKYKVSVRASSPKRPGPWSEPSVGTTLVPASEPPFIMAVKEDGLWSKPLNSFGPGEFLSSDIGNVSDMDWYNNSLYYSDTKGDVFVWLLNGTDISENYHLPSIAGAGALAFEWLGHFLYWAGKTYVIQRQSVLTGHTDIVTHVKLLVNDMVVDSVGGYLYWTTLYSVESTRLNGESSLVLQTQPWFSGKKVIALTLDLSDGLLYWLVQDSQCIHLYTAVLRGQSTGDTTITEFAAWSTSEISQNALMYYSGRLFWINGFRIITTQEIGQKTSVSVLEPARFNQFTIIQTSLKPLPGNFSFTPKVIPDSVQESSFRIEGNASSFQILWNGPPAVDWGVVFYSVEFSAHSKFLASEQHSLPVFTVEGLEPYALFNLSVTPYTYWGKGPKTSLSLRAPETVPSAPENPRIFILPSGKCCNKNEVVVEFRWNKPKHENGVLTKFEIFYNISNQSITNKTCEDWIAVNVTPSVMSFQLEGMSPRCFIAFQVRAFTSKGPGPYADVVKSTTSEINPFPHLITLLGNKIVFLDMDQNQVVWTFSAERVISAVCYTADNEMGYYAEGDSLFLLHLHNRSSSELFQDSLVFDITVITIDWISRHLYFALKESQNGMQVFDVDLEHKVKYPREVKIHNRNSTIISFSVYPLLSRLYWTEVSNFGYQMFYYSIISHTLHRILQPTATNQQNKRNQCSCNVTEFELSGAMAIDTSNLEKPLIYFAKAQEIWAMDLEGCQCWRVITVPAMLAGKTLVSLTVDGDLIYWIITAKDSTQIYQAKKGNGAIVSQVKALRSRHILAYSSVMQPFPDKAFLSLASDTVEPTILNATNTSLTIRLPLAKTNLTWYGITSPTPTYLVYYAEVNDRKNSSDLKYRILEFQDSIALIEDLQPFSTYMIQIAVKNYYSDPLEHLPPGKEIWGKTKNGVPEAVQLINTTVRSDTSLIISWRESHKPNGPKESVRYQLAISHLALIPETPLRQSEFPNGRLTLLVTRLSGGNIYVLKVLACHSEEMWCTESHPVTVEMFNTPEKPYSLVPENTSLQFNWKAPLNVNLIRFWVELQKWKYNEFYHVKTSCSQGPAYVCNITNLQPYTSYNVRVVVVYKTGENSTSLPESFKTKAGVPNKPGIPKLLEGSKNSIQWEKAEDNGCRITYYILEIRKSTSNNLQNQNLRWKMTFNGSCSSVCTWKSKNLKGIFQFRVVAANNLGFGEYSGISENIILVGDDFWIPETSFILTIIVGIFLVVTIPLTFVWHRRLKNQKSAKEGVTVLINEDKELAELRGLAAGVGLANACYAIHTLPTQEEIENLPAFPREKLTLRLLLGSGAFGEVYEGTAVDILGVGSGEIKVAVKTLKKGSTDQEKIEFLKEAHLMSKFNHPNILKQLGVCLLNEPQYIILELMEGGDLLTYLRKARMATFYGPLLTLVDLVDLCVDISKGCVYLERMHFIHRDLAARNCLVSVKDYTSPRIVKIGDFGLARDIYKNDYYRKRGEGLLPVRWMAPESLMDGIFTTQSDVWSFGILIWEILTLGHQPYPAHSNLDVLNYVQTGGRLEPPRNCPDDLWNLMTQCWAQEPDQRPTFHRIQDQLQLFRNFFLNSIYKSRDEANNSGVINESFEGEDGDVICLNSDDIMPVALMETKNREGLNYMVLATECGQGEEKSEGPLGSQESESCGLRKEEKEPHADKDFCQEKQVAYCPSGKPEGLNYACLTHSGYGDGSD", "settings": "ROS1, ZLYTE, ATP Km app"}, "[3]": {"molecular_target": "T2, off-target kinases (Homo sapiens, UniProt Q9UKI8)", "T2 sequence (Q9UKI8 1-766)": "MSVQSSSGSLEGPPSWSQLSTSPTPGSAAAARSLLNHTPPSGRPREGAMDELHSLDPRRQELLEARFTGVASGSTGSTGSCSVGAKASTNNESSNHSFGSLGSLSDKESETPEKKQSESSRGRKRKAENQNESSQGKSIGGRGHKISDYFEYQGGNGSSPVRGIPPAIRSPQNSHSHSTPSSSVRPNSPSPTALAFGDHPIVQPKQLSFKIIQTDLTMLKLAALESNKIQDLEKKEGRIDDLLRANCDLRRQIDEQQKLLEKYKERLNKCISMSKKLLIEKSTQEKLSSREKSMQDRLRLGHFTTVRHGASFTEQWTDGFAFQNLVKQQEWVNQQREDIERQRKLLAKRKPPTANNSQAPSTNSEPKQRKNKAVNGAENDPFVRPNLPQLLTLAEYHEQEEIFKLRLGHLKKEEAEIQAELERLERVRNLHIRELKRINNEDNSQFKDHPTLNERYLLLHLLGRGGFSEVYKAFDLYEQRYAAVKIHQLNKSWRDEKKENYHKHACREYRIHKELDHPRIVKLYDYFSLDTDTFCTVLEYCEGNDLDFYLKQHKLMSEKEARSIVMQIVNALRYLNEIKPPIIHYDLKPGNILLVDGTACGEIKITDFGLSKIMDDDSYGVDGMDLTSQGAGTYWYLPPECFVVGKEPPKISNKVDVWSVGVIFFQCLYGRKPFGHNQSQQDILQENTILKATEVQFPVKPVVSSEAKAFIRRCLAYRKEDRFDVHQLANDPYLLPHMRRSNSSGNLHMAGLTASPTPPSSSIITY", "settings": "TLK1, LanthaScreen Binding"}, "[4]": {"molecular_target": "off-target kinases (Homo sapiens, UniProt Q5VT25)", "sequence (Q5VT25 whole entry)": "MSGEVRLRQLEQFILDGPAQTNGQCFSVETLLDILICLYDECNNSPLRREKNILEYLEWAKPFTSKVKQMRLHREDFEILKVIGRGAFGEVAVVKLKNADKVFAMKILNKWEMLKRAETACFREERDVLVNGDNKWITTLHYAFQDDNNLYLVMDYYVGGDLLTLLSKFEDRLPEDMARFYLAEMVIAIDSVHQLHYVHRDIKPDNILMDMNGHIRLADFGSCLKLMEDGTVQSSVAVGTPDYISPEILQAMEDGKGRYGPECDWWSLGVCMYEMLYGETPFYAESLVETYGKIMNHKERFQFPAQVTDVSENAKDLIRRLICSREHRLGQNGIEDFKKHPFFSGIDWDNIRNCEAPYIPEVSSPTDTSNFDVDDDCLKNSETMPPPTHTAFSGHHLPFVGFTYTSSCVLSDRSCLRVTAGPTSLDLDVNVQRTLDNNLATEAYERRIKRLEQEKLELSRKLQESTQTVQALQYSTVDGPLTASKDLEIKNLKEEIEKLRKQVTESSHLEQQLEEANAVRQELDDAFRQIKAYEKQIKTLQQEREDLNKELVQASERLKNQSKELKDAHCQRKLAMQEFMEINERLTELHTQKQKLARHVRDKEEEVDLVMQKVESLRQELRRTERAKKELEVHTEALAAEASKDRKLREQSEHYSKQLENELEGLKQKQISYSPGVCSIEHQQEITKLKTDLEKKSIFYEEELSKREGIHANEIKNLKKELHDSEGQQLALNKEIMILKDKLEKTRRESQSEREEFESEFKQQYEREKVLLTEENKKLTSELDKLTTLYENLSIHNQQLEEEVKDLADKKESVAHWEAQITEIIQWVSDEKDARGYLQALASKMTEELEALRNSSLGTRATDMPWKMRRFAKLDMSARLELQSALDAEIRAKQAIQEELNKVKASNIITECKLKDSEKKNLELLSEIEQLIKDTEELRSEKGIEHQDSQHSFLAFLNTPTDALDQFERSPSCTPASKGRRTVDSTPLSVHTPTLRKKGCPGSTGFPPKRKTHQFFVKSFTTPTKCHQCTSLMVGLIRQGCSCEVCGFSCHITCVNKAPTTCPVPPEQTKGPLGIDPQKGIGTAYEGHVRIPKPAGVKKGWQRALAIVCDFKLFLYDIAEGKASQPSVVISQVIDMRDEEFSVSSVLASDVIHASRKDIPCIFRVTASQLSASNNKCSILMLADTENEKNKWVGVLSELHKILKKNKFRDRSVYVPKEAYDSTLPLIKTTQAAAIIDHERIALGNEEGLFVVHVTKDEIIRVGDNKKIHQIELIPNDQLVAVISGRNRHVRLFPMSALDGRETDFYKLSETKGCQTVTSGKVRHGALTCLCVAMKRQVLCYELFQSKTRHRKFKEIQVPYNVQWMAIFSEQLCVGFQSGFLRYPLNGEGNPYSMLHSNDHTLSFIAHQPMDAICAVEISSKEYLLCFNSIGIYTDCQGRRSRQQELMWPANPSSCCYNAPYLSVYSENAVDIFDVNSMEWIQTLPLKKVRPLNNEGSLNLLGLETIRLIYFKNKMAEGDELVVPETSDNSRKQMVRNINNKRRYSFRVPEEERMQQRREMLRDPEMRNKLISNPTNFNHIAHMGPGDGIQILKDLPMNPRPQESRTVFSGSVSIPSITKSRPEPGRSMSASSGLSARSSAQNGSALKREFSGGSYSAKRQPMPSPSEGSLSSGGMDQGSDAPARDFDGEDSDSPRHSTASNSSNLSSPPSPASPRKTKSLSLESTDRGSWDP", "settings": "CDC42 BPA (MRCKA), ZLYTE, ATP Km app"}},
  "note": "Read-outs that look alike come from different tables or passages of the source.",
  "data": [
    {"smiles": "N#Cc1cc(-c2ncnc(Nc3ccc(N4CCN(C5COC5)CC4)cc3)n2)ccc1OC1CCOCC1", "note": "[Compound 1, 5-(4-((4-(4-(oxetan-3-yl)piperazin-1-yl)phenyl)amino)-1,3,5-triazin-2-yl)-2-((tetrahydro-2H-pyran-4-yl)oxy)benzonitrile]", "values": [
      {"measurement": "inhibition", "setting": "[1]; read-out: % Inhibition 1", "result": 56, "unit": "%"},
      {"measurement": "inhibition", "setting": "[1]; read-out: % Inhibition 2", "result": 57, "unit": "%"},
      {"measurement": "inhibition", "setting": "[1]; read-out: % Inhibition Avg", "result": 57, "unit": "%"},
      {"measurement": "inhibition", "setting": "[2]; read-out: % Inhibition 1", "result": 30, "unit": "%"},
      {"measurement": "inhibition", "setting": "[2]; read-out: % Inhibition 2", "result": 26, "unit": "%"},
      {"measurement": "inhibition", "setting": "[2]; read-out: % Inhibition Avg", "result": 28, "unit": "%"},
      {"measurement": "inhibition", "setting": "[3]; read-out: % Inhibition 1", "result": 13, "unit": "%"},
      {"measurement": "inhibition", "setting": "[3]; read-out: % Inhibition 2", "result": 17, "unit": "%"},
      {"measurement": "inhibition", "setting": "[3]; read-out: % Inhibition Avg", "result": 15, "unit": "%"},
      {"measurement": "inhibition", "setting": "[4]; read-out: % Inhibition 1", "result": 4, "unit": "%"},
      {"measurement": "inhibition", "setting": "[4]; read-out: % Inhibition 2", "result": 4, "unit": "%"},
      {"measurement": "inhibition", "setting": "[4]; read-out: % Inhibition Avg", "result": 4, "unit": "%"}
    ]}
  ]
}
